Entries after “also recorded” stand apart in the source; their conditions may differ. Where a SMILES comes first, the peptide text is derived from it. Bridges are numbered along the chain shown (N, C = ends).
Assays:
[1] = system: human tumor cell lines (A549, A375, PC-3, U87); settings: peptide combined with prodigiosin
primary fibroblasts = settings: peptide combined with prodigiosin
TC-1 tumor = experiment: TC-1 subcutaneous tumor model in C57BL/6 mice; type: in vivo; settings: 80 μM, intratumoral route
Protocol: Six-to-eight weeks-old, C57BL/6 female mice of 22 g of weight were supplied by the National Center for Laboratory Animal Production (CENPALAB, Havana, Cuba) and housed under pathogen-free conditions at the Bioterium of the Center for Genetic Engineering and Biotechnology (CIGB). Experiments were carried out in agreement with regulations for proper handling and care of laboratory animals. Tumor volume was measured on each case (estimated by the formula: volume=a^2×(b/2), where a is the width and b is the length of the tumor) and animal survival was evaluated.
Survival was compared between groups by the Logrank test. The statistic parameters were obtained with the aid of the GraphPad Prism 4.0 software (GraphPad Software, San Diego, Calif., USA).
C57BL/6 mice were injected in the right flank by subcutaneous route (s.c.) with 50 000 TC-1 cells. When tumors were detectable, mice were randomized into treatment groups to evaluate the treatment with the peptides subject of study, to evaluate them by different administration routes. Tumor-bearing animals received 6 administrations in alternate days, with 80 μM of the subject peptide, solely received the vehicle as control. Five mice were used for each group. Animals were housed under pathogen-free conditions, and procedures were conducted in agreement with good practices for laboratory animal handling and care.

human tumor cells = experiment: Cytotoxic activity screening of peptide library on human tumor cell lines, SRB method; type: cell-based; settings: for Cytotoxic activity in vitro: SRB method, cytotoxic = dose-dependent 50% inhibition of proliferation, GI50 below 100 μM in at least one cell line
Protocol: Negative control cells were cultured on a volume of vehicle equal to that of the experimental samples. An “x-y” curve (dose-response) was established with the percent of surviving cells, compared in respect to the negative control cells, and the following parameters were estimated: 50% growth inhibition (GI50); Total growth inhibition (TGI); and the lethal concentration 50 (LC50), that is the concentration causing the 50% of cell death (Boyd M R, Paull K D, and Rubinstein L R (1992) “Data display and analysis strategies for the NCI Disease Oriented In-Vitro Antitumor Drug Screen, in Cytotoxic Anticancer Drugs: Models and Concept for Drug Discovery and Development” (Baleriote F A, Corbett T H and Baker L H eds) pp 11-34, Kluwer Academia Publishers, Boston).
Were considered as cytotoxic peptides all those peptides being able of inhibiting 50% of the cellular proliferation, in a dose-dependent manner, and showing GI50 values below 100 μM, at least in one of the cell lines studied. The human tumor cell lines used were: HEp-2 (larynx carcinoma), A549 (lung epithelial adenocarcinoma), M14 (melanoma), Colo 205 (colon adenocarcinoma), Ls174T (colon adenocarcinoma), LnCAP (prostate carcinoma), PC-3 (prostate carcinoma) and H 125 (non-small cell lung adenocarcinoma). Represented are primary sequences for the designed peptides, the code used for its generation and their respective cytotoxic capacity on human tumor cells.

CC(C)C[C@@H]1NC(=O)[C@H](Cc2ccccc2)NC(=O)[C@H](CC(=O)O)NC(=O)[C@H](CCCNC(=N)N)NC(=O)CNC(=O)[C@H]([C@@H](C)O)NC(=O)[C@H](CC(N)=O)NC(=O)[C@@H](NC(=O)[C@H](CC(N)=O)NC(=O)[C@H](Cc2ccccc2)NC(=O)CNC(=O)[C@H](Cc2ccc(O)cc2)NC(=O)[C@@H](NC(=O)[C@@H](NC(=O)[C@H](CC(=O)O)NC(=O)CN)[C@@H](C)O)C(C)C)CSSC[C@@H](C(=O)N[C@H](C(=O)N[C@H](C(=O)N[C@@H](CO)C(N)=O)[C@@H](C)O)[C@@H](C)O)NC1=O [Peptide A08P28s-s] (H-GDTVYGFNCNTGRDFLCTTS-NH2; disulfide 9-17)
GI50 values [1]: nm range
effect on the cytotoxic activity of prodigiosin [1]: enhanced
decrease of the cytotoxic activity of prodigiosin on primary fibroblasts (primary fibroblasts): at least one order of magnitude
survival (TC-1 tumor): intermediate survival block

CC[C@H](C)[C@H](NC(=O)[C@H](CC(=O)O)NC(=O)[C@H](CCCCN)NC(=O)CNC(=O)[C@H](C)NC(=O)CNC(=O)CNC(=O)[C@H](Cc1c[nH]c2ccccc12)NC(=O)[C@H](CC(C)C)NC(=O)[C@H](CCC(=O)O)NC(=O)[C@@H](N)CC(=O)O)C(=O)N[C@@H](Cc1ccccc1)C(=O)N[C@H](C(=O)N[C@@H](Cc1ccccc1)C(=O)N[C@@H](CO)C(=O)N[C@@H](C)C(=O)N[C@@H](C)C(=O)N[C@@H](CO)C(=O)N[C@@H](CC(=O)O)C(=O)N[C@@H](CO)C(N)=O)C(C)C [Peptide O07P102] (H-DELWGGAGKDIFVFSAASDS-NH2)
Cytotoxic activity in vitro (human tumor cells): − (symbol − indicates its absence, following criteria established in Example 2)

CC(C)C[C@H](NC(=O)[C@H](C)NC(=O)[C@H](CCC(=O)O)NC(=O)CNC(=O)[C@H](C)NC(=O)[C@@H](NC(=O)CN)[C@@H](C)O)C(=O)N[C@@H](CC(C)C)C(=O)N[C@@H](CO)C(=O)N[C@@H](Cc1ccc(O)cc1)C(=O)N[C@@H](CC(N)=O)C(=O)N[C@@H](C)C(=O)N[C@@H](CO)C(=O)N[C@@H](CO)C(=O)N[C@@H](CC(N)=O)C(=O)N[C@H](C(=O)N[C@H](C(=O)N[C@@H](CC(=O)O)C(=O)N[C@@H](CC(C)C)C(=O)N[C@@H](CO)C(N)=O)[C@@H](C)O)C(C)C [Peptide O07P108] (H-GTAGEALLSYNASSNVTDLS-NH2)
Cytotoxic activity in vitro (human tumor cells): − (symbol − indicates its absence, following criteria established in Example 2)

CC[C@H](C)[C@H](NC(=O)[C@H](C)NC(=O)[C@H](CC(N)=O)NC(=O)[C@H](CCC(=O)O)NC(=O)[C@@H](NC(=O)[C@@H](NC(=O)[C@@H](NC(=O)CNC(=O)[C@H](C)NC(=O)[C@H](C)NC(=O)[C@@H](NC(=O)[C@H](CO)NC(=O)[C@@H](NC(=O)[C@H](CC(N)=O)NC(=O)CNC(=O)[C@H](CCCCN)NC(=O)[C@H](CC(C)C)NC(=O)CN)C(C)C)[C@@H](C)CC)C(C)C)[C@@H](C)O)[C@@H](C)CC)C(=O)NCC(=O)NCC(N)=O [Peptide A07P44] (H-GLKGNVSIAAGVTIENAIGG-NH2)
Cytotoxic activity in vitro (human tumor cells): − (symbol − indicates its absence, following criteria established in Example 2)

CC[C@H](C)[C@H](NC(=O)[C@H](CCCNC(=N)N)NC(=O)[C@H](CCC(N)=O)NC(=O)[C@H](CC(N)=O)NC(=O)[C@H](C)NC(=O)[C@@H](NC(=O)[C@H](Cc1ccc(O)cc1)NC(=O)CNC(=O)[C@H](CO)NC(=O)[C@H](Cc1ccccc1)NC(=O)[C@H](CC(=O)O)NC(=O)[C@H](Cc1ccccc1)NC(=O)[C@@H](NC(=O)[C@H](CC(=O)O)NC(=O)[C@H](CC(N)=O)NC(=O)CNC(=O)CNC(=O)[C@H](C)NC(=O)[C@@H](N)CC(=O)O)[C@@H](C)O)[C@@H](C)O)C(=O)N[C@@H](CC(N)=O)C(N)=O [Peptide M07P39] (H-DAGGNDTFDFSGYTANQRIN-NH2)
Cytotoxic activity in vitro (human tumor cells): − (symbol − indicates its absence, following criteria established in Example 2)

CC[C@H](C)[C@H](NC(=O)[C@H](CCCNC(=N)N)NC(=O)[C@H](CCC(N)=O)NC(=O)[C@H](CC(N)=O)NC(=O)[C@H](C)NC(=O)[C@@H](NC(=O)[C@H](Cc1ccc(O)cc1)NC(=O)CNC(=O)[C@@H](N)CO)[C@@H](C)O)C(=O)N[C@@H](CC(N)=O)C(=O)N[C@@H](CC(C)C)C(=O)N[C@@H](CC(N)=O)C(=O)N[C@@H](CCC(=O)O)C(=O)N[C@@H](CCCCN)C(=O)N[C@@H](CO)C(=O)N[C@@H](Cc1ccccc1)C(=O)N[C@@H](CO)C(=O)N[C@@H](CC(=O)O)C(=O)N[C@H](C(=O)NCC(N)=O)C(C)C [Peptide A07P42] (H-SGYTANQRINLNEKSFSDVG-NH2)
Cytotoxic activity in vitro (human tumor cells): − (symbol − indicates its absence, following criteria established in Example 2)

CC[C@H](C)[C@H](NC(=O)[C@@H](NC(=O)[C@H](CCCCN)NC(=O)[C@H](CCC(N)=O)NC(=O)[C@H](CO)NC(=O)[C@H](CC(N)=O)NC(=O)[C@H](CO)NC(=O)[C@@H](NC(=O)[C@@H](NC(=O)[C@H](CO)NC(=O)[C@H](CC(C)C)NC(=O)[C@H](Cc1ccccc1)NC(=O)[C@H](CC(=O)O)NC(=O)[C@H](CCCNC(=N)N)NC(=O)CNC(=O)[C@@H](N)[C@@H](C)O)[C@@H](C)O)[C@@H](C)O)C(C)C)C(=O)N[C@@H](Cc1ccccc1)C(=O)N[C@@H](C)C(=O)N[C@@H](C)C(=O)N[C@@H](Cc1c[nH]c2ccccc12)C(N)=O [Peptide F07P16] (H-TGRDFLSTTSNSQKVIFAAW-NH2)
Cytotoxic activity in vitro (human tumor cells): − (symbol − indicates its absence, following criteria established in Example 2)
cytotoxic / biological activity in vitro on tumor cells (human tumor cells; peptide library screening): no cytotoxic activity; also recorded: inactive

CC[C@H](C)[C@H](NC(=O)[C@H](Cc1ccccc1)NC(=O)[C@H](CC(=O)O)NC(=O)[C@@H](NC(=O)[C@H](C)NC(=O)[C@@H](NC(=O)[C@H](CC(=O)O)NC(=O)[C@@H](NC(=O)[C@H](CCC(N)=O)NC(=O)CNC(=O)[C@@H](NC(=O)[C@@H](NC(=O)[C@H](CCCCN)NC(=O)[C@@H](NC(=O)[C@H](CC(C)C)NC(=O)[C@@H](N)Cc1ccccc1)C(C)C)[C@@H](C)CC)C(C)C)C(C)C)C(C)C)[C@@H](C)O)C(=O)N[C@H](C(N)=O)C(C)C [Peptide E07P03, FLVKIVGQVDVATDFIV- amide] (H-FLVKIVGQVDVATDFIV-NH2)
Cytotoxic activity in vitro (human tumor cells): − (symbol − indicates its absence, following criteria established in Example 2)

CC[C@H](C)[C@H](NC(=O)[C@H](C)NC(=O)[C@H](C)NC(=O)[C@@H](NC(=O)[C@H](CC(=O)O)NC(=O)[C@H](CC(=O)O)NC(=O)[C@H](CC(C)C)NC(=O)[C@@H](N)CC(C)C)[C@@H](C)CC)C(=O)N[C@@H](CCC(N)=O)C(=O)N[C@@H](Cc1c[nH]cn1)C(=O)N[C@@H](CC(C)C)C(=O)N[C@@H](Cc1ccc(O)cc1)C(=O)NCC(=O)N[C@@H](C)C(=O)N[C@@H](CC(N)=O)C(=O)N1CCC[C@H]1C(=O)N[C@@H](CO)C(=O)N[C@H](C(=O)N[C@@H](CCCNC(=N)N)C(=O)N[C@H](C(N)=O)[C@@H](C)O)[C@@H](C)O [Peptide E07P05] (H-LLDDIAAIQHLYGANPSTRT-NH2)
Cytotoxic activity in vitro (human tumor cells): − (symbol − indicates its absence, following criteria established in Example 2)

CC[C@H](C)[C@H](NC(=O)[C@H](Cc1ccccc1)NC(=O)[C@H](CC(=O)O)NC(=O)[C@H](CO)NC(=O)[C@H](CO)NC(=O)[C@H](CC(N)=O)NC(=O)[C@H](C)NC(=O)[C@H](CCC(=O)O)NC(=O)[C@H](CCCCN)NC(=O)[C@H](CC(N)=O)NC(=O)[C@H](Cc1ccccc1)NC(=O)[C@H](Cc1ccccc1)NC(=O)[C@@H](N)CO)C(=O)N[C@@H](Cc1c[nH]cn1)C(=O)N[C@@H](Cc1ccccc1)C(=O)N[C@H](C(=O)N[C@@H](CC(=O)O)C(=O)N[C@@H](Cc1c[nH]cn1)C(=O)N[C@@H](Cc1ccccc1)C(=O)N[C@@H](CO)C(N)=O)C(C)C [Peptide O07P106] (H-SFFNKEANSSDFIHFVDHFS-NH2)
Cytotoxic activity in vitro (human tumor cells): − (symbol − indicates its absence, following criteria established in Example 2)

CC[C@H](C)[C@H](NC(=O)CNC(=O)[C@H](CCCCN)NC(=O)[C@H](CCC(N)=O)NC(=O)[C@H](Cc1ccccc1)NC(=O)[C@H](CC(=O)O)NC(=O)[C@H](CCCNC(=N)N)NC(=O)[C@@H](NC(=O)[C@H](Cc1c[nH]c2ccccc12)NC(=O)[C@H](CC(=O)O)NC(=O)[C@H](CO)NC(=O)[C@H](C)NC(=O)CNC(=O)[C@@H]1CCCN1C(=O)[C@H](C)N)[C@@H](C)CC)C(=O)N[C@@H](CC(=O)O)C(=O)N[C@@H](CCCCN)C(=O)N[C@H](C(=O)N[C@@H](CC(=O)O)C(=O)N[C@@H](CC(C)C)C(N)=O)[C@@H](C)CC [Peptide O07P104] (H-APGASDWIRDFQKGIDKIDL-NH2)
Cytotoxic activity in vitro (human tumor cells): − (symbol − indicates its absence, following criteria established in Example 2)

Source: patent publication US9375459B2, “Cyclic peptides with an anti-neoplasic and anti-angiogenic activity” (priority 2011, dated 2016)
